Our source for the inhibition and IC50 values is ChEMBL document CHEMBL4368936, “Discovery and structure-activity relationship study of phthalimide-phenylpyridine conjugate as inhibitor of Wnt pathway” (Bioorg Med Chem Lett, 2019).

For one assay, the species on record is Mus musculus. The experiment in a line: Inhibition of Wnt/beta-catenin pathway in mouse L Wnt3A cells at 10 uM after 48 hrs by TOP-flash dual reporter gene assay relative to control. It counts as cell-based. Background: In a reporter assay the amount or activity of a reporter protein is the signal.
Assay [1] can be described thus: Inhibition of Wnt/beta-catenin pathway in mouse L Wnt3A cells after 48 hrs by TOP-flash dual reporter gene assay. To be noted: L Wnt-3A. It counts as cell-based.

For `O=C(CCCN1C(=O)c2ccc(Cl)cc2C1=O)Nc1ccc(-c2ccccc2)cn1`, in the assay listed under Mus musculus, the inhibition (as a rule, the drop in the measured response relative to a control, in per cent) was 22%.

Consider `O=C(CCCN1C(=O)c2ccccc2C1=O)Nc1ccc(-c2ccccc2)cn1`, for which the inhibition in the assay listed under Mus musculus came out at 34%.

Consider `O=C(CCCN1C(=O)c2ccc(F)c(F)c2C1=O)Nc1ccc(-c2ccccc2)cn1`, for which the inhibition in the assay listed under Mus musculus is 21%.

Regarding `Cc1cccc2c1C(=O)N(CCCC(=O)Nc1ccc(-c3ccccc3)cn1)C2=O`, the inhibition in the assay filed under Mus musculus came to 61%. Further, in assay [1], the IC50 (in general, the concentration at which inhibition is half-maximal) was determined as 2790 nM.

For the compound `CC(C)(C)c1ccc2c(c1)C(=O)N(CCCC(=O)Nc1ccc(-c3ccccc3)cn1)C2=O`, in the assay listed under Mus musculus, the inhibition is 23%.

In the case of `Cc1cccc2c1C(=O)N(C(C)C(=O)Nc1ccc(-c3ccccc3)cn1)C2=O` (stereo not given), the inhibition in the assay listed under Mus musculus was 39%. Besides, in assay [1], the IC50 is above 10000 nM.

For the compound `O=C(CCCN1C(=O)c2cccc(Cl)c2C1=O)Nc1ccc(-c2ccccc2)cn1`, in the assay listed under Mus musculus, the inhibition turned out to be 46%.

As to `Cc1ccc2c(c1)C(=O)N(CCCC(=O)Nc1ccc(-c3ccccc3)cn1)C2=O`, the inhibition in the assay filed under Mus musculus was 20%.

For the compound `O=C(CCCN1C(=O)c2c(Cl)c(Cl)c(Cl)c(Cl)c2C1=O)Nc1ccc(-c2ccccc2)cn1`, the inhibition in the assay listed under Mus musculus is -5%.

As for `O=C(CCCN1C(=O)c2ccc([N+](=O)[O-])cc2C1=O)Nc1ccc(-c2ccccc2)cn1`, the inhibition in the assay filed under Mus musculus is 19%.

Take `O=C(CCCN1C(=O)c2c(F)ccc(F)c2C1=O)Nc1ccc(-c2ccccc2)cn1`: the inhibition in the assay filed under Mus musculus is 37%.

In the case of `O=C(CCCN1C(=O)c2ccc(F)cc2C1=O)Nc1ccc(-c2ccccc2)cn1`, the inhibition in the assay listed under Mus musculus turned out to be 20%.

In the case of `O=C(CCCN1C(=O)c2cccc(F)c2C1=O)Nc1ccc(-c2ccccc2)cn1`, the inhibition in the assay filed under Mus musculus turned out to be 44%.

For the compound `Cc1cccc2c1C(=O)N(CCC(=O)Nc1ccc(-c3ccccc3)cn1)C2=O`, in the assay filed under Mus musculus, the inhibition was found to be 29%. For the same compound, in assay [1], the IC50 was above 10000 nM.

For `Cc1cc(-c2ncc(CC(=O)Nc3ccc(-c4cnccn4)cn3)cc2C)ccn1` [WNT-974], the inhibition in the assay filed under Mus musculus was found to be 93%. Moreover, inhibition in assay [1] was half-maximal at 0.57 nM (IC50).

Consider `O=C(CCCN1C(=O)c2ccc(Br)cc2C1=O)Nc1ccc(-c2ccccc2)cn1`, for which the inhibition in the assay filed under Mus musculus came out at 18%.

On to `Cc1cccc2c1C(=O)N(CC(=O)Nc1ccc(-c3ccccc3)cn1)C2=O`, for which the inhibition in the assay listed under Mus musculus worked out at 76%. This compound returned a half-maximal inhibitory concentration (IC50) in assay [1] of 280 nM.

With `O=C(CCCN1C(=O)c2ccc(C#Cc3ccccc3)cc2C1=O)Nc1ccc(-c2ccccc2)cn1`, in the assay filed under Mus musculus, the inhibition was 7%.

With `O=C(CCCN1C(=O)c2cc(Cl)c(Cl)cc2C1=O)Nc1ccc(-c2ccccc2)cn1`, the inhibition in the assay filed under Mus musculus is -8%.

With `O=C(CCCN1C(=O)c2cccc([N+](=O)[O-])c2C1=O)Nc1ccc(-c2ccccc2)cn1`, the inhibition in the assay filed under Mus musculus turned out to be 17%.
